Reference: PMC11117721, “A Fast-Binding, Functionally Reversible, COX-2 Radiotracer for CNS PET Imaging” (ACS Central Science, 2024)

Target: T1, COX-2 (Mus musculus, UniProt Q05769)
T1 construct: from tissue; host or cells: brain of living wild-type mice (Strain C57BL/6J)
T1 sequence (Q05769 18-604): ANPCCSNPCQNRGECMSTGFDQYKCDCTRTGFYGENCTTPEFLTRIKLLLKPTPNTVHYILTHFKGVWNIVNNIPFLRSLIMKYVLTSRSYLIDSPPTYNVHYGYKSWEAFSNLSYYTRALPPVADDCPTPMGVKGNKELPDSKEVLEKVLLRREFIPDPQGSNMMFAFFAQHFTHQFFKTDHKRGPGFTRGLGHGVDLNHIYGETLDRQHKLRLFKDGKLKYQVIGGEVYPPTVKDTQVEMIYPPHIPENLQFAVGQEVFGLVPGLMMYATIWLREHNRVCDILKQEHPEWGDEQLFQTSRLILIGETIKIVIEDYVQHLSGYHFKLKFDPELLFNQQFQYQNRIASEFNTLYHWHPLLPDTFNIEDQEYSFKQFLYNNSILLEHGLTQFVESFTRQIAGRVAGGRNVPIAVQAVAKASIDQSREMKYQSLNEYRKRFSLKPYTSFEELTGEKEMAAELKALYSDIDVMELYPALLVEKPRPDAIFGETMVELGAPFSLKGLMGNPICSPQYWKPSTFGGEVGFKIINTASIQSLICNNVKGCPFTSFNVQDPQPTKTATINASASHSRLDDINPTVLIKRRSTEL
Test: PET imaging of wild-type mice (controls)
Assay type: in vivo
Conditions: WT mice (n = 4)
Text: We performed additional validation of [^11C]BRD1158 through in vivo PET imaging of an hCOX-2 transgenic mouse line (Figure 3), which overexpressed human COX-2 primarily in neurons (Strain No. 010703, Jackson Laboratories). […] While we did perform contralateral sham (control virus) injections in the AAV rats to assess potential injection confounds, as COX-2 is part of the injury and inflammation response, it was important to validate in a model naïve to brain insult to mitigate how aspects of the AAV rat experimental design could have misled our interpretations of tracer specific binding.
In accordance with Massachusetts General Hospital Institutional Animal Care and Use Committee (IACUC) protocols, Sprague Dawley rats (300-500g, Charles River Laboratories), wildtype mice (Strain C57BL/6J), and human Thy-1-COX-2 transgenic line 303 mice (Strain 010703, Jackson Laboratories) were used in these studies. All animals were housed in a standard animal facility with access to conventional rodent food and water ad libitum and a 12 -hour day/night schedule. All animals were allowed to acclimate before any experime ntal procedures. Only male animals were used for imaging experiments .
Animals were induced under anesthesia using 1 -3% isoflurane in a carrier of 1.0 -1.5 L/min oxygen.
Maintenance of isoflurane depended on procedure and species, rats 2 -3% and mice 1-2%. Rats undergoing surgeries had higher isoflurane maintenance at 3 -4%. After induction, the animals’ body temperatures were regulated using a support heating pad or fan throughout all experiments.
Respiratory rates and body temperature were monitored through all imaging and surgical procedures, generally using a respiratory pad and rectal probe. Injections were made through the lateral tail vein.
Rats were cannulated with an IV extension using a 60 in, 0.3 mL volume IV extender (Smith Medical) and a 24 ga x 0.75 in IV catheter (McKesson). Mice were cannulated with Intramedic PE10 tubing (BD […]
Group 2 animals then […]

SUV Average (9–21 min) (cerebellum): 0.376 ± 0.02
SUV Average (9–21 min) (cortex): 0.359 ± 0.04
SUV Average (9–21 min) (striatum): 0.385 ± 0.05
SMILES: [11CH3]S(=O)(=O)c1ccc(-c2cccc(NCc3ccoc3)n2)cc1 [[^11C]BRD1158]
